# Measured values published in patent US20230085307A1, “PYRIDAZINONE COMPOUND AND HERBICIDE” (NISSAN CHEMICAL CORPORATION, priority 2019, published 2023).
# What was measured:
# Japanese bulrush = assay: Test Example 1: herbicidal activity, application before weed generation under submerged conditions (Table 16, symbol B); assay type: in vivo, Japanese bulrush (Schoenoplectus juncoides)
# Method in brief: (§1)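 Alluvial soil was flooded to 4 cm depth, weed seeds were sown mixed and 2.5-leaf rice seedlings were transplanted. On sowing day, the compound's emulsion, diluted in water to a set dose, was applied to the water surface. Plants grew at 25–30 °C and were scored 0–5 after three weeks.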
# oval-leafed pondweed = assay: Test Example 1: herbicidal activity, application before weed generation under submerged conditions (Table 16, symbol C); assay type: in vivo, oval-leafed pondweed (Monochoria vaginalis)
# Method in brief: as §1
# barnyard grass [1] = assay: Test Example 3: herbicidal effect by foliage application, Wagner pot (Table 18, symbol H); assay type: in vivo, barnyard grass (Echinochloa crus-galli)
# Method in brief: (§2)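 Plants were sown in alluvial soil held under 0.1–0.5 cm standing water and grown 14 days in a greenhouse at 25–30 °C. An emulsifiable formulation, water-diluted to the set dose, was then sprayed onto the foliage, and effects were scored three weeks later using previously defined criteria.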
# Chinese sprangletop = assay: Test Example 3: herbicidal effect by foliage application, Wagner pot (Table 18, symbol D); assay type: in vivo, chinese sprangletop (Leptochloa chinensis)
# Method in brief: as §2
# southern crabgrass [2] = assay: Test Example 4: herbicidal effect by soil treatment (Table 19, symbol F); assay type: in vivo, southern crabgrass (Digitaria ciliaris)
# Method in brief: (§3)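 Soil-surface application: an emulsion agent diluted with water to the predetermined dose is sprayed uniformly over seeds lying under roughly 1.5 cm of sterilized diluvial soil. Boxes stay in a greenhouse at 25° C. to 30° C. Three weeks later, each species is graded on previously defined criteria.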
# wild oat [3] = assay: Test Example 4: herbicidal effect by soil treatment (Table 19, symbol I); assay type: in vivo, wild oat (Avena fatua)
# Method in brief: as §3
# blackgrass [4] = assay: Test Example 4: herbicidal effect by soil treatment (Table 19, symbol J); assay type: in vivo, blackgrass (Alopecurus myosuroides)
# Method in brief: as §3
# Italian ryegrass = assay: Test Example 4: herbicidal effect by soil treatment (Table 19, symbol K); assay type: in vivo, Italian ryegrass (Lolium multiflorum)
# Method in brief: as §3
# redroot pigweed = assay: Test Example 4: herbicidal effect by soil treatment (Table 19, symbol N); assay type: in vivo, redroot pigweed (Amaranthus retroflexus)
# Method in brief: as §3
# false cleavers = assay: Test Example 4: herbicidal effect by soil treatment (Table 19, symbol Q); assay type: in vivo, false cleavers (Galium spurium)
# Method in brief: as §3
# southern crabgrass [5] = assay: Test Example 5: herbicidal effect by foliage application, plastic box (Table 20, symbol F); assay type: in vivo, southern crabgrass (Digitaria ciliaris); conditions: foliage application, evaluated 3 weeks after application
# Method in brief: (§4)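 Sow seeds spot-wise in sterilized diluvial soil; cover with ~1.5 cm soil. Grow 14 days in greenhouse, 25° C. to 30° C. Spray foliage with emulsion diluted to predetermined amount. Rate effect after 3 weeks.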
# barnyard grass [6] = assay: Test Example 5: herbicidal effect by foliage application, plastic box (Table 20, symbol H); assay type: in vivo, barnyard grass (Echinochloa crus-galli); conditions: foliage application, evaluated 3 weeks after application
# Method in brief: as §4
# wild oat [7] = assay: Test Example 5: herbicidal effect by foliage application, plastic box (Table 20, symbol I); assay type: in vivo, wild oat (Avena fatua); conditions: foliage application, evaluated 3 weeks after application
# Method in brief: as §4
# blackgrass [8] = assay: Test Example 5: herbicidal effect by foliage application, plastic box (Table 20, symbol J); assay type: in vivo, blackgrass (Alopecurus myosuroides); conditions: foliage application, evaluated 3 weeks after application
# Method in brief: as §4
# windgrass = assay: Test Example 5: herbicidal effect by foliage application, plastic box (Table 20, symbol L); assay type: in vivo, windgrass (Apera spica-venti); conditions: foliage application, evaluated 3 weeks after application
# Method in brief: as §4
# lambsquarters = assay: Test Example 5: herbicidal effect by foliage application, plastic box (Table 20, symbol O); assay type: in vivo, lambsquarters (Chenopodium album); conditions: foliage application, evaluated 3 weeks after application
# Method in brief: as §4
# persian speedwell = assay: Test Example 5: herbicidal effect by foliage application, plastic box (Table 20, symbol R); assay type: in vivo, Persian speedwell (Veronica persica); conditions: foliage application, evaluated 3 weeks after application
# Method in brief: as §4
# [9] = amount of applied herbicide 320 g/ha
# [10] = amount of applied herbicide 402 g/ha
Structure (SMILES),"Herbicidal effect, B: Japanese bulrush (Japanese bulrush; [9])","Herbicidal effect, C: oval-leafed pondweed (oval-leafed pondweed; [9])","Herbicidal effect on H (barnyard grass), foliage application (barnyard grass [1]; [9])","Herbicidal effect on D (Chinese sprangletop), foliage application (Chinese sprangletop; [9])","F: southern crabgrass, herbicidal effect grade (southern crabgrass [2]; [9])","I: wild oat, herbicidal effect grade (wild oat [3]; [9])","J: blackgrass, herbicidal effect grade (blackgrass [4]; [9])","K: Italian ryegrass, herbicidal effect grade (Italian ryegrass; [9])","N: redroot pigweed, herbicidal effect grade (redroot pigweed; [9])","Q: false cleavers, herbicidal effect grade (false cleavers; [9])",F (southern crabgrass) herbicidal effect grade (southern crabgrass [5]; 320 g/ha),H (barnyard grass) herbicidal effect grade (barnyard grass [6]; 320 g/ha),I (wild oat) herbicidal effect grade (wild oat [7]; 320 g/ha),J (blackgrass) herbicidal effect grade (blackgrass [8]; 320 g/ha),L (windgrass) herbicidal effect grade (windgrass; 320 g/ha),O (lambsquarters) herbicidal effect grade (lambsquarters; 320 g/ha),R (persian speedwell) herbicidal effect grade (persian speedwell; 320 g/ha),further results
CCCOc1ccc(-c2oc3ccc(C)cc3c2-c2c(O)c(C)nn(C)c2=O)cc1 [9-049],5 (Herbicidal rate of 90% or more (almost completely withered)),5 (Herbicidal rate of 90% or more (almost completely withered)),5 (Herbicidal rate of 90% or more (almost completely withered)),2 (Herbicidal rate of 20% or more and less than 40%),4 (Herbicidal rate of 70% or more and less than 90%),0 (Herbicidal rate of 5% or less (almost no effect)),0 (Herbicidal rate of 5% or less (almost no effect)),5 (Herbicidal rate of 90% or more (almost completely withered)),5 (Herbicidal rate of 90% or more (almost completely withered)),0 (Herbicidal rate of 5% or less (almost no effect)),5 (Herbicidal rate of 90% or more (almost completely withered)),5 (Herbicidal rate of 90% or more (almost completely withered)),0 (Herbicidal rate of 5% or less (almost no effect)),4 (Herbicidal rate of 70% or more and less than 90%),0 (Herbicidal rate of 5% or less (almost no effect)),5 (Herbicidal rate of 90% or more (almost completely withered)),5 (Herbicidal rate of 90% or more (almost completely withered)),
CCCC(=O)Oc1c(C)nn(C)c(=O)c1-c1c(-c2ccc(SCC)cc2)oc2ccc(C)cc12 [9-058],5 (Herbicidal rate of 90% or more (almost completely withered)),5 (Herbicidal rate of 90% or more (almost completely withered)),5 (Herbicidal rate of 90% or more (almost completely withered)),3 (Herbicidal rate of 40% or more and less than 70%),5 (Herbicidal rate of 90% or more (almost completely withered)),0 (Herbicidal rate of 5% or less (almost no effect)),0 (Herbicidal rate of 5% or less (almost no effect)),5 (Herbicidal rate of 90% or more (almost completely withered)),5 (Herbicidal rate of 90% or more (almost completely withered)),0 (Herbicidal rate of 5% or less (almost no effect)),4 (Herbicidal rate of 70% or more and less than 90%),4 (Herbicidal rate of 70% or more and less than 90%),2 (Herbicidal rate of 20% or more and less than 40%),3 (Herbicidal rate of 40% or more and less than 70%),0 (Herbicidal rate of 5% or less (almost no effect)),5 (Herbicidal rate of 90% or more (almost completely withered)),5 (Herbicidal rate of 90% or more (almost completely withered)),
CCCC(=O)Oc1c(C)nn(C)c(=O)c1-c1c(-c2ccc(SC(C)C)cc2)oc2ccc(C)cc12 [9-060],,,,,,,,,,,,,,,,,,"Herbicidal effect, B: Japanese bulrush (Japanese bulrush; [10]): 4 (Herbicidal rate of 70% or more and less than 90%); Herbicidal effect, C: oval-leafed pondweed (oval-leafed pondweed; [10]): 5 (Herbicidal rate of 90% or more (almost completely withered)); Herbicidal effect on H (barnyard grass), foliage application (barnyard grass [1]; [10]): 4 (Herbicidal rate of 70% or more and less than 90%); Herbicidal effect on D (Chinese sprangletop), foliage application (Chinese sprangletop; [10]): 2 (Herbicidal rate of 20% or more and less than 40%); F: southern crabgrass, herbicidal effect grade (southern crabgrass [2]; [10]): 1 (Herbicidal rate of 5% or more and less than 20%); I: wild oat, herbicidal effect grade (wild oat [3]; [10]): 0 (Herbicidal rate of 5% or less (almost no effect)); J: blackgrass, herbicidal effect grade (blackgrass [4]; [10]): 0 (Herbicidal rate of 5% or less (almost no effect)); K: Italian ryegrass, herbicidal effect grade (Italian ryegrass; [10]): 4 (Herbicidal rate of 70% or more and less than 90%); N: redroot pigweed, herbicidal effect grade (redroot pigweed; [10]): 5 (Herbicidal rate of 90% or more (almost completely withered)); Q: false cleavers, herbicidal effect grade (false cleavers; [10]): 0 (Herbicidal rate of 5% or less (almost no effect)); F (southern crabgrass) herbicidal effect grade (southern crabgrass [5]; 402 g/ha): 0 (Herbicidal rate of 5% or less (almost no effect)); H (barnyard grass) herbicidal effect grade (barnyard grass [6]; 402 g/ha): 3 (Herbicidal rate of 40% or more and less than 70%); I (wild oat) herbicidal effect grade (wild oat [7]; 402 g/ha): 3 (Herbicidal rate of 40% or more and less than 70%); J (blackgrass) herbicidal effect grade (blackgrass [8]; 402 g/ha): 1 (Herbicidal rate of 5% or more and less than 20%); L (windgrass) herbicidal effect grade (windgrass; 402 g/ha): 0 (Herbicidal rate of 5% or less (almost no effect)); O (lambsquarters) herbicidal effect grade (lambsquarters; 402 g/ha): 5 (Herbicidal rate of 90% or more (almost completely withered)); R (persian speedwell) herbicidal effect grade (persian speedwell; 402 g/ha): 5 (Herbicidal rate of 90% or more (almost completely withered))"
CCCC(=O)Oc1c(C)nn(C)c(=O)c1-c1c(-c2ccc(COC)cc2)oc2ccc(C)cc12 [9-062],5 (Herbicidal rate of 90% or more (almost completely withered)),5 (Herbicidal rate of 90% or more (almost completely withered)),5 (Herbicidal rate of 90% or more (almost completely withered)),3 (Herbicidal rate of 40% or more and less than 70%),4 (Herbicidal rate of 70% or more and less than 90%),0 (Herbicidal rate of 5% or less (almost no effect)),4 (Herbicidal rate of 70% or more and less than 90%),5 (Herbicidal rate of 90% or more (almost completely withered)),5 (Herbicidal rate of 90% or more (almost completely withered)),0 (Herbicidal rate of 5% or less (almost no effect)),5 (Herbicidal rate of 90% or more (almost completely withered)),4 (Herbicidal rate of 70% or more and less than 90%),0 (Herbicidal rate of 5% or less (almost no effect)),4 (Herbicidal rate of 70% or more and less than 90%),0 (Herbicidal rate of 5% or less (almost no effect)),5 (Herbicidal rate of 90% or more (almost completely withered)),5 (Herbicidal rate of 90% or more (almost completely withered)),
